Legend:
[1] = cited from earlier work
[2] = Equilibrium solubility in SMEDDS formulation; type: physicochemical; details: in SMEDDS (Cremophor EL, Carbitol, Captex 355); room temperature overnight
[3] = cited from earlier work; remark: listed apart in the source
[4] = test system: UGT (curcumin glucuronidation, mouse liver microsomes); assay: Inhibition of curcumin glucuronidation in mouse liver microsomes; type: biochemical; details: inhibitor up to 10 μM, curcumin 1 μM
[5] = Oral pharmacokinetic studies in mice; type: in vivo, mouse; details: silibinin 100 mg/kg with curcumin 100 mg/kg in SMEDDS

| Compound | Solubility [2] | effect on curcumin glucuronidation / UGT activity (in words) [4] | other results |
| --- | --- | --- | --- |
| COc1cc(/C=C/C(=O)CC(=O)/C=C/c2ccc(O)c(OC)c2)ccc1O [Curcumin] | 51.5 mg/g | – | bioavailability [1]: < 2%; solubility in water [3]: ~ 2 ng/mL |
| O=C(O[C@@H]1Cc2c(O)cc(O)cc2O[C@@H]1c1cc(O)c(O)c(O)c1)c1cc(O)c(O)c(O)c1 [EGCG, epigallocatechin gallate] | – | slightly increased UGT activity | – |
| O=C(/C=C/C=C/c1ccc2c(c1)OCO2)N1CCCCC1 [Piperine, piperine] | 45.2 mg/g | no inhibitory effect | – |
| O=c1c(O)c(-c2ccc(O)c(O)c2)oc2cc(O)cc(O)c12 [Quercetin, quercetin] | 34.4 mg/g | – | – |
| COc1cc(C2Oc3cc([C@H]4Oc5cc(O)cc(O)c5C(=O)[C@@H]4O)ccc3OC2CO)ccc1O (stereo partly shown) [Silibinin, silibinin] | 32.8 mg/g | – | time of peak silibinin plasma concentration [5]: 30 min |
| O=C(O)c1ccccc1O [salicylic acid] | – | slightly increased UGT activity | – |

Reference: publication PMC4240011 (Drug delivery and translational research, 2014)
